Source: PMC3089676 (Journal of the American Chemical Society, 2010)

Legend:
Format in all cases: biochemical
[1] = target: T1, HcyF (WS1006) (Wolinella succinogenes, UniProt Q7M9D2); test: HPLC detection of AMP formation; conditions: HcyS-Ala and HcyD present; MgCl2; room temperature
T1 sequence (Q7M9D2 1-272): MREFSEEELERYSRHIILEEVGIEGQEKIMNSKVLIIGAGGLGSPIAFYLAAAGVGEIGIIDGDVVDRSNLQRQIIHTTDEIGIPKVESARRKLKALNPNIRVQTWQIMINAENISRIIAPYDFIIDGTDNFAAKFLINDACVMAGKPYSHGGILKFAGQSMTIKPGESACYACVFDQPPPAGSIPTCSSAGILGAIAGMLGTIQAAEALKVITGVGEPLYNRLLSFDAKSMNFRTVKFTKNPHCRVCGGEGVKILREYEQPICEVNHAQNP

[2] = target: T2, MetY (WS1012) (Wolinella succinogenes, UniProt Q7M9C8); test: MALDI-MS of HcyS-homocysteine formation; conditions: HcyS-COSH as sulfur donor; room temperature
T2 sequence (Q7M9C8 1-407): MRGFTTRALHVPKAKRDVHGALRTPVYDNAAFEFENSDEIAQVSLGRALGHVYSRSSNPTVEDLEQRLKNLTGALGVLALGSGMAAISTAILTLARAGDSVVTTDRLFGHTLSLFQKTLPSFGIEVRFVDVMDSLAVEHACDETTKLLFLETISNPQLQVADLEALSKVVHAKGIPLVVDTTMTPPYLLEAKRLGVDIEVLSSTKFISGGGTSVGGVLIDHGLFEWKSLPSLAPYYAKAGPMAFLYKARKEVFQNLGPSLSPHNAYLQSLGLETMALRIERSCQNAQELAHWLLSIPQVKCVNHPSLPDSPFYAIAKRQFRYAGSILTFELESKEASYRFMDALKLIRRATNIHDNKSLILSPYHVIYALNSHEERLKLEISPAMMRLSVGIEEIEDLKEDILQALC

[3] = target: T3, HcyD (WS1005) (Wolinella succinogenes, UniProt Q7MRV8); test: 1H-NMR of released alanine; conditions: released from HcyS-Ala (protein substrate); pH 8.0; room temperature
T3 sequence (Q7MRV8 1-130): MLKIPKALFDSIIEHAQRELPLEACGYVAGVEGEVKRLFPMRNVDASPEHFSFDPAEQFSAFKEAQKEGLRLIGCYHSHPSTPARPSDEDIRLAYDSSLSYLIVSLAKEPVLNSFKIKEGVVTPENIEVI

## Nc1ncnc2c1ncn2[C@@H]1O[C@H](COP(=O)(O)OP(=O)(O)OP(=O)(O)O)[C@@H](O)[C@H]1O [ATP]
[1]
  HPLC detection of AMP formation: AMP formation was dependent on HcyF, HcyS-Ala and HcyD

## CC(=O)OCC[C@H](N)C(=O)O [O-acetyl-L-homoserine]
[2]
  MALDI-MS of HcyS-homocysteine formation: catalyzed the reaction of HcyS-COSH with O-acetyl-L-homoserine to form HcyS-Homocysteine

## C[C@H](N)C(=O)O [alanine]
[3]
  1H-NMR of released alanine: 1H-NMR analysis of the small-molecule product confirmed the release of alanine from HcyS-Ala
